{"source": "patent US6303596A", "about": "“Use of taurolidine for treatment of leukemias” (priority 2000, dated 2001)", "key": {"REH": {"test_system": "REH", "assay": "growth rate after taurolidine treatment, REH", "type": "cell-based", "settings": "Homo sapiens, 72 h, growth over three days, read-out: growth rate (% of control)", "experimental": "(§1) FIGS. 8A and 8B depict cell viability and growth rates for REH cell line following taurolidine treatment, in terms of % trypan blue negative cells and % cell number, respectively. Cells were treated with various concentrations of taurolidine for 4 hours in AIM-V+0.01% BCS. After aliquots were collected for LDH assay, the remainder of the culture was rinsed in HBSS and resuspended in RPMI+10% BCS without taurolidine. Counts of trypan blue-negative cells (FIG. 8A), and total cell number (FIG. 8B), were recorded daily thereafter (with the measurement at Day 1 being made immediately after the 4 hour taurolidine treatment). […] Doubling times were determined under each condition, and expressed as a percentage of the rate of doubling of untreated cells. […]\n(§2) In these experiments, integrity of cell membranes following taurolidine treatment was assessed by exclusion of trypan blue and by measuring the release of LDH in MM6, K-562, HL-60, and REH cells. […] A parallel aliquot of cells was lysed by three cycles of freeze/thaw and the quantity of LDH released was taken to be 100%. […]\nHL-60 cells treated with 50 μl taurolidine. In these samples, LDH present in the culture medium was 8.3±2.3% of that released by completely lysed cells, compared with 2.3±0.8% measured in control cultures. […]\n^b Growth rate was measured over three days following treatment."}, "MM6 cells": {"test_system": "MM6 cells", "assay": "trypan blue exclusion, MM6", "type": "cell-based, human", "experimental": "FIG. 4A and FIG. 4B are graphs depicting cell viability and growth rates following taurolidine treatment as determined by assay procedures. MM6 cells were treated with taurolidine as described in FIG. 3. After aliquots were collected for the lactate dehydrogenase (LDH) assay, the remainder of the culture was rinsed in Hank's balanced salt solution (HBSS) and resuspended in RPMI+10% BCS without taurolidine. Counts of trypan blue-negative cells represented in FIG. 4A and total cell number represented in FIG. 4B were recorded daily thereafter (with the measurement at Day 1 being made immediately after the four hour taurolidine treatment). Conditions were no treatment (open squares); 50 μg/ml taurolidine (closed squares); 25 μg/ml taurolidine (open circles); and vehicle alone (closed circles). Cells were subcultured when they reached a concentration of 6×10^5 cells/ml. Data are mean±SEM of three experiments.\nas §1, with “5A” for “8A”, “5B” for “8B”, “MM6” for “REH”, “5A),” for “8A),”, “5B),” for “8B),”\nas §2"}, "[1]": {"test_system": "other leukemia-derived cell lines", "assay": "growth after taurolidine treatment, other leukemia-derived cell lines", "type": "cell-based, human", "settings": "50 μg/ml or greater", "experimental": "(§3) In these experiments, integrity of cell membranes following taurolidine treatment was assessed by exclusion of trypan blue and by measuring the release of LDH in MM6, K-562, HL-60, and REH cells. Since BCS contains significant amounts of LDH, these experiments were conducted on cells cultured in AIM-V+0.01% BCS. Four hour treatment of cells was conducted in AIM-V containing 0.01% BCS in order to allow subsequent LDH assay without interference from BCS (which occurs in when normal culture medium, containing 10% BCS, is used). Thus, MM6 cells (5×10^5 cells/ml) were treated with taurolidine for four hours in AIM-V+0.01% BCS, after which an aliquot of the cell suspension was removed for measurement of LDH release. A parallel aliquot of cells was lysed by three cycles of freeze/thaw and the quantity of LDH released was taken to be 100%. Remaining cells were rinsed in HBSS and resuspended in growth medium for measurement of growth rates.\n(§4) HL-60 cells treated with 50 μl taurolidine. In these samples, LDH present in the culture medium was 8.3±2.3% of that released by completely lysed cells, compared with 2.3±0.8% measured in control cultures. […] After 4 hour treatment, cells were rinsed and returned to growth medium and monitored for viability and growth over the following 3 days. […]"}, "GM5387 (fibroblasts) [2]": {"test_system": "GM5387 (fibroblasts)", "assay": "growth rate (proliferation) after taurolidine treatment, GM5387", "type": "cell-based, human", "settings": "GM5387, 50 and 100 μg/ml taurolidine", "experimental": "(§5) FIGS. 11A and 11B depict cell viability and growth rates for GM5387 cell line following taurolidine treatment, in terms of % trypan blue negative cells and % cell number, respectively. Cells were treated with various concentrations of taurolidine for 4 hours in AIM-V+0.01% BCS. After aliquots were collected for LDH assay, the remainder of the culture was rinsed in HBSS and resuspended in RPMI+10% BCS without taurolidine. Counts of trypan blue-negative cells (FIG. 11A), and total cell number (FIG. 11B), were recorded daily thereafter (with the measurement at Day 1 being made immediately after the 4 hour taurolidine treatment). Conditions were: no treatment (open circles); 25 μg/ml taurolidine (closed circles); 50 μg/ml taurolidine (open squares); 100 μg/ml taurolidine (closed squares); and vehicle alone (closed triangles). Doubling times were determined under each condition, and expressed as a percentage of the rate of doubling of untreated cells. These values are located to the right of the growth curves in (FIG. 11B). […]\nas §4"}, "all other cell lines": {"test_system": "all other cell lines", "assay": "LDH release (cell membrane integrity), all other cell lines", "type": "cell-based, human", "settings": "all samples from all other cell lines (n=3); 240 min", "experimental": "as §3, §4"}, "GM5387 (fibroblasts) [3]": {"test_system": "GM5387 (fibroblasts)", "assay": "trypan blue exclusion, GM5387", "type": "cell-based, human", "settings": "GM5387, after taurolidine treatment", "experimental": "as §5, §4"}}, "data": [{"smiles": "O=S1(=O)CCN(CN2CCS(=O)(=O)NC2)CN1", "note": "[taurolidine, 4,4'-methylenebis(perhydro-1,2,4-thiadiazin 1,1-dioxide)]", "values": [{"measurement": "activity at 50 µg/mL", "setting": "REH; 50 μg/ml for 4 h", "result": 1, "unit": "%"}, {"measurement": "activity at 100 µg/mL", "setting": "REH; 100 μg/ml for 4 h", "result": 18, "unit": "%"}, {"measurement": "cytotoxicity at 50 µg/mL", "setting": "MM6 cells; Homo sapiens, MM6, 50 μg/ml taurolidine for 4 h, untreated and vehicle 5%, read-out: trypan blue-positive cells on the day following treatment (Day 2)", "result": 65, "unit": "%"}, {"measurement": "trypan blue staining after treatment", "setting": "MM6 cells; MM6, 25 μg/ml taurolidine", "result": "did not show an increase in trypan blue staining"}, {"measurement": "trypan blue exclusion immediately after treatment (Day 1)", "setting": "MM6 cells; MM6, taurolidine-treated 4 h, versus control", "result": "equally able to exclude trypan blue"}, {"measurement": "growth after taurolidine treatment", "setting": "[1]", "result": "inhibition of growth"}, {"measurement": "proliferation after treatment", "setting": "GM5387 (fibroblasts) [2]", "result": "inhibited proliferation"}, {"measurement": "LDH levels, % of lysed cell samples", "setting": "all other cell lines", "result": "≤ 7", "unit": "%"}, {"measurement": "trypan blue staining during 4 day growth", "setting": "GM5387 (fibroblasts) [3]", "result": "did not demonstrate a significant increase in trypan blue staining"}, {"measurement": "trypan blue staining during 4 day growth", "setting": "GM5387 (fibroblasts) [3]; listed as Taurolidine", "result": "cells remained trypan blue negative"}]}]}
